# Data taken from patent publication US20230203043A1, “NOVEL IMIDAZOPYRAZINE DERIVATIVES” (Hoffmann-La Roche Inc., priority 2020, published 2023).
# Counter-ions that a name gives are not always drawn. Like-named read-outs stand apart in the source and are kept apart here.
# System: Acinetobacter baumannii ATCC17961
# Assay: Antimicrobial susceptibility testing: 90% growth inhibitory concentration (IC90) determination in Iso-Sensitest broth, OD600 growth
# Type: cell-based
# How it was run: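 Compounds were twofold serially diluted in DMSO across 10 points (e.g. 50 to 0.097 μM final) and inoculated at ~5×10^(5) CFU/ml. Plates incubated at 35±2° C, with OD600 read every 20 minutes over 16 h. IC90 was derived from growth inhibition during logarithmic growth.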
# [1] = Acinetobacter baumannii, ATCC17961, 16 h, strain ATCC 17961, OD600 growth over 16 h, read-out: A. baumannii ATCC 17961 IC90
# [2] = Acinetobacter baumannii, ATCC17961, 16 h, read-out: A. baumannii ATCC 17961 IC90 (uM), strain ATCC 17961, OD600 growth over 16 h
IC90 [1] [µM],Compound,IC90 [2] [µM],also measured
0.204,"N#CCn1cc(-c2cnc3c(Nc4ccc(C(=O)N5CCC(NC(=O)N[C@H]6CCNC6)CC5)c(Cl)c4)nccn23)c(C(F)(F)F)n1 [Example 11, 1-[1-[2-chloro-4-[[3-[1-(cyanomethyl)-3-(trifluoromethyl)pyrazol-4-yl]imidazo[1,2-a]pyrazin-8-yl]amino]benzoyl]piperidin-4-yl]-3-[(3S)-pyrrolidin-3-yl]urea]",,
0.12,"NCCCNC(=O)CNCCNC(=O)c1ccc(Nc2nccn3c(-c4cn(CC(F)F)nc4C(F)(F)F)cnc23)cc1Cl [Example 824, N-(2-((2-((3-aminopropyl)amino)-2-oxoethyl)amino)ethyl)-2-chloro-4-(3-(1-2,2-difluoroethyl)-3-(trifluoromethyl)-1H-pyrazol-4-yl)imidazo[1,2-a]pyrazin-8-yl)amino) benzamide formate]",,
4.05,"NC1CN(C(=O)CNC(=O)c2ccc(Nc3nccn4c(-c5c[nH]nc5C(F)(F)F)cnc34)cc2Cl)C1 [Example 141, N-[2-(3-aminoazetidin-1-yl)-2-oxoethyl]-2-chloro-4-[[3-[3-(trifluoromethyl)-1H-pyrazol-4-yl]imidazo[1,2-a]pyrazin-8-yl]amino]benzamide]",,
1.12,"CCOCCCNC(=O)c1ccc(Nc2nccn3c(-c4c[nH]nc4C(F)(F)F)cnc23)cc1CC [Example 223, N-(3-ethoxypropyl)-2-ethyl-4-[[3-[3-(trifluoromethyl)-1H-pyrazol-4-yl]imidazo[1,2-a]pyrazin-8-yl]amino]benzamide]",,
0.241,"O=C(c1ccc(Nc2nccn3c(-c4c[nH]nc4C(F)(F)F)cnc23)cc1Cl)N1CCN(C(=O)[C@H]2CNC[C@H](O)C2)CC1 (racemic) [Example 353, [2-chloro-4-[[3-[3-(trifluoromethyl)-1H-pyrazol-4-yl]imidazo[1,2-a]pyrazin-8-yl]amino]phenyl]-[4-[rac-(3R,5R)-5-hydroxypiperidine-3-carbonyl]piperazin-1-yl]methanone]",,
0.262,"C#CCn1cc(-c2cnc3c(Nc4ccc(C(=O)N5CCN(C(=O)C6CCNCC6)CC5)c(CC)c4)nccn23)c(C(F)(F)F)n1 [Example 5, [2-ethyl-4-[[3-[1-prop-2-ynyl-3-(trifluoromethyl)pyrazol-4-yl]imidazo[1,2-a]pyrazin-8-yl]amino]phenyl]-[4-(piperidine-4-carbonyl)piperazin-1-yl]methanone]",,
0.204,"CCc1cc(Nc2nccn3c(-c4cn(CC(F)F)nc4C(F)(F)F)cnc23)ccc1C(=O)NCCOC[C@@H](C)N [Example 151, N-[2-[(2R)-2-aminopropoxy]ethyl]-4-[[3-[1-(2,2-difluoroethyl)-3-(trifluoromethyl)pyrazol-4-yl]imidazo[1,2-a]pyrazin-8-yl]amino]-2-ethylbenzamide]",,
0.529,"CCc1cc(Nc2nccn3c(-c4c[nH]nc4C(F)(F)F)cnc23)ccc1C(=O)NCCNC(=O)[C@H]1C[C@@H](N)C1 [Example 740, N-(2-((1s,3s)-3-aminocyclobutane-1-carboxamido)ethyl)-2-ethyl-4-((3-(3-(trifluoromethyl)-1H-pyrazol-4-yl)imidazo[1,2-a]pyrazin-8-yl)amino)benzamide]",,
0.141,"CCCn1cc(-c2cnc3c(Nc4ccc(C(=O)NCCOCCN)c(CC)c4)nccn23)c(C(F)(F)F)n1 [Example 25, N-[2-(2-aminoethoxy)ethyl]-2-ethyl-4-[[3-[1-propyl-3-(trifluoromethyl)pyrazol-4-yl]imidazo[1,2-a]pyrazin-8-yl]amino]benzamide hydrochloride]",,
0.53,"CCc1cc(Nc2nccn3c(-c4cn(CC(F)F)nc4C(F)F)cnc23)ccc1C(=O)N1CCN(C(=O)C2CCNCC2)CC1 [Example 742, (4-(4-((3-(1-(2,2-difluoroethyl)-3-(difluoromethyl)-1H-pyrazol-4-yl)imidazo[1,2-a]pyrazin-8-yl)amino)-2-ethylbenzoyl)piperazin-1-yl)(piperidin-4-yl) methanone]",,
0.185,"CCc1cc(Nc2nccn3c(-c4cn(CC(F)F)nc4C(F)(F)F)cnc23)ccc1C(=O)NCCNC(=O)[C@@H]1CCCN1 [Example 35, (2S)-N-[2-[[4-[[3-[1-(2,2-difluoroethyl)-3-(trifluoromethyl)pyrazol-4-yl]imidazo[1,2-a]pyrazin-8-yl]amino]-2-ethylbenzoyl)amino]ethyl]pyrrolidine-2-carboxamide]",,
0.58,"CCc1cc(Nc2nccn3c(-c4cn(CC#N)nc4C#N)cnc23)ccc1C(=O)NCCOCCN [Example 830, N-(2-(2-aminoethoxy)ethyl)-4-((3-(3-cyano-1-(cyanomethyl)-1H-pyrazol-4-yl)imidazo[1,2-α]pyrazin-8-yl)amino)-2-ethyl-benzamide]",,
0.569,"CCc1cc(Nc2nccn3c(-c4cn(C(C)C#N)nc4C(F)(F)F)cnc23)ccc1C(=O)NCCOCCN1CCOCC1 (stereo not shown) [Example 745, 4-((3-(1-(1-cyanoethyl)-3-(trifluoromethyl)-1H-pyrazol-4-yl)imidazo[1,2-a]pyrazin-8-yl)amino)-2-ethyl-N-(2-(2-morpholinoethoxy)ethyl) benzamide formate]",,
0.97,"CN(CCN)C(=O)c1ccc(Nc2nccn3c(-c4c[nH]nc4C(F)(F)F)cnc23)cc1Cl [Example 322, N-(2-aminoethyl)-2-chloro-N-methyl-4-[[3-[3-(trifluoromethyl)-1H-pyrazol-4-yl]imidazo[1,2-a]pyrazin-8-yl]amino]benzamide]",,
1.55,"CNC(=O)c1ccc(Nc2nccn3c(-c4cn(C5CNC5)nc4C(F)(F)F)cnc23)cc1Cl [Example 348, 4-[[3-[1-(azetidin-3-yl)-3-(trifluoromethyl)pyrazol-4-yl]imidazo[1,2-a]pyrazin-8-yl]amino]-2-chloro-N-methylbenzamide hydrochloride]",,

# The next lines start with the compound.
Compound,IC90 [1] [µM],IC90 [2] [µM],also measured
"Cc1cc(Nc2nccn3c(-c4c[nH]nc4C(F)(F)F)cnc23)ccc1C(=O)N1CCN(C(=O)[C@@H]2CCNC[C@H]2O)CC1 [Example 464, formic acid; [4-[(3S,4R)-3-hydroxypiperidine-4-carbonyl]piperazin-1-yl]-[2-methyl-4-[[3-[3-(trifluoromethyl)-1H-pyrazol-4-yl]imidazo[1,2-a]pyrazin-8-yl]amino]phenyl]methanone]",,1.26,
"CCc1cc(Nc2nccn3c(-c4c[nH]nc4C(F)(F)F)cnc23)ccc1C(=O)NCCNC(=O)[C@@H](C)N [Example 696, (R)-N-(2-(2-aminopropanamido)ethyl)-2-ethyl-4-((3-(3-(trifluoromethyl)-1H-pyrazol-4-yl)imidazo [1,2-a]pyrazin-8-yl)amino)benzamide formate]",,0.37,
"Cc1cc(Nc2nccn3c(-c4cn(CCF)nc4C(F)(F)F)cnc23)cc(F)c1C(=O)NCCOCCN [Example 61, N-[2-(2-aminoethoxy)ethyl]-2-fluoro-4-[[3-[1-(2-fluoroethyl)-3-(trifluoromethyl)pyrazol-4-yl]imidazo[1,2-a]pyrazin-8-yl]amino]-6-methylbenzamide]",0.232,,
"CCc1cc(Nc2nccn3c(-c4cn(CC(O)CO)nc4C(F)(F)F)cnc23)ccc1C(=O)NCCOCCN (stereo not shown) [Example 314, N-[2-(2-aminoethoxy)ethyl]-4-[[3-[1-(2,3-dihydroxypropyl)-3-(trifluoromethyl)pyrazol-4-yl]imidazo[1,2-a]pyrazin-8-yl]amino]-2-ethylbenzamide formate]",,1.43,
"O=C(c1ccc(Nc2nccn3c(-c4c[nH]nc4C(F)(F)F)cnc23)cc1Cl)N1CCN(C(=O)[C@H]2CCNC[C@@H]2O)CC1 [Example 453, [2-chloro-4-[[3-[3-(trifluoromethyl)-1H-pyrazol-4-yl]imidazo[1,2-a]pyrazin-8-yl]amino]phenyl]-[4-[(3R,4S)-3-hydroxypiperidine-4-carbonyl]piperazin-1-yl]methanone formate]",,0.586,
"4-[2-chloro-4- [[3-[1-(2- cyanoethyl)-3- pyrazol-4- yl]imidazo[1,2- a]pyrazin-8- yl]amino]benzoyl]- N-[(3R)- pyrrolidin-3- yl]piperazine-1- carboxamide formate [Example 261]",,,"IC90 (strain ATCC 17961, OD600 growth over 16 h, read-out: A. baumannii ATCC 17961 IC90): 0.521 µM"
"Cc1cc(Nc2nccn3c(-c4c[nH]nc4C(F)(F)F)cnc23)ccc1C(=O)NCCCNC(=O)[C@@H]1C[C@@H](O)CN1 [Example 442, formic acid; (2S,4R)-4-hydroxy-N-[3-[[2-methyl-4-[[3-[3-(trifluoromethyl)-1H-pyrazol-4-yl]imidazo[1,2-a]pyrazin-8-yl]amino]benzoyl]amino]propyl]pyrrolidine-2-carboxamide]",,0.622,
"Cc1cc(Nc2nccn3c(-c4cn(CC#N)nc4C(F)(F)F)cnc23)ccc1C(=O)N[C@H](C)C(=O)NC1CC(N)C1 (stereo partly drawn) [Example 725, N-[(1R)-2[(3-aminocyclobutyl)amino]-1-methyl-2-oxo-ethyl]-4-[[3-[1-(cyanomethyl)-3-(trifluoromethyl)pyrazol-4-yl]imidazo[1,2-a]pyrazin-8-yl]amino]-2-methyl-benzamide formate]",,0.462,
"CCc1cc(Nc2nccn3c(-c4cn(CC5CC5(F)F)nc4C(F)(F)F)cnc23)ccc1C(=O)NCCOCCN (stereo not shown) [Example 277, N-[2-(2-aminoethoxy)ethyl]-4-[[3-[1-[(2,2-difluorocyclopropyl)methyl]-3-(trifluoromethyl)pyrazol-4-yl]imidazo[1,2-a]pyrazin-8-yl]amino]-2-ethylbenzamide formate]",,0.186,
"CCc1cc(Nc2nccn3c(-c4cn(CC#N)nc4C(F)(F)F)cnc23)ccc1C(=O)NCC(=O)N1CCNC(C)C1 (stereo not shown) [Example 507, 4-[[3-[1-(cyanomethyl)-3-(trifluoromethyl)pyrazol-4-yl]imidazo[1,2-a]pyrazin-8-yl]amino]-2-ethyl-N-[2-(3-methylpiperazin-1-yl)-2-oxo-ethyl]benzamide formate]",,0.245,
